Assay: Cell viability (MTT) assay on macrophages in primary culture
Type: cell-based
Settings: Wistar, mouse, peritoneal macrophages in primary culture, concentrations 2.41 × 10^–4 to 2.41 mM, read-out: half cytotoxic concentration (IC50)
Procedure: The inflammatory response is part of the body’s first line of defence against a pathogen. Macrophages are one of the most studied inflammatory cells due to their high involvement in this inflammatory process. The recognition of an antigenic motif by a toll-like receptor on macrophages leads to a cascade of molecular signalling to the synthesis of pro-inflammatory mediators such as NO to eliminate the pathogen. First, the effect of the compounds on cell viability was assessed by measuring the cytotoxicity of the compounds in cell culture using the MTT assay at concentrations ranging from 2.41 × 10^–4 to 2.41 mM (figure 1).
Peritoneal macrophages were isolated from four eight-week-old, 25 g Wistar mice by intraperitoneal injection of 0.5 ml of 2% starch solution (inflammatory agent) to stimulate their production. Four days later, the animals were sacrificed, and 5 ml of phosphate buffered saline (PBS) buffer (0.1 M, pH 7.4) was injected into their peritoneal cavity with a syringe. […]
The effect of the solutions of synthetic compounds on the viability of macrophages in primary culture was determined by using the MTT as previously described in the literature. […] Finally, the absorbance of the purple solution was read at 630 nm against the acidified isopropanol solution. The percentage of cell viability was calculated using the following formula: […]

CC(C)Cc1ccc(C(=O)OCCOC(=O)C(C)c2ccc(CC(C)C)cc2)cc1 (stereo not shown) [Compound 2, 2-((2-(4-isobutylphenyl)propanoyl)oxy)ethyl 4-isobutylbenzoate]
IC50 at 3 h: 4.9 mM

— PMC12074795, “Synthesis and biological evaluation of esterified anti-inflammatory drugs with ethylene glycol linkers: cytotoxicity, anti-inflammatory and antioxidant properties” (Royal Society Open Science, 2025)
